For data set [1], the system named is Yellow nutsedge (Cyperus esculentus). The experiment in a line: Postemergence herbicidal activity, greenhouse spray. Type of data set: in vivo. The settings on record: visual score after 2 weeks. As to the method: (§1) When required to ensure good germination and healthy plants, a fungicide treatment and/or other chemical or physical treatment was applied. The plants were grown for 7-21 days in a greenhouse with an approximate 15 hr photoperiod which was maintained at about 23-29° C. during the day and 22-28° C. during the night. Nutrients and water were added on a regular basis and supplemental lighting was provided with overhead metal halide 1000-Watt lamps as necessary. The plants were employed for testing when they reached the first or second true leaf stage. A weighed amount, determined by the highest rate to be tested, of each test compound was placed in a 20 mL glass vial and was dissolved in 4 mL of a 97:3 v/v (volume/volume) mixture of acetone and dimethyl sulfoxide (DMSO) to obtain concentrated stock solutions. […] The concentrated stock solutions obtained were diluted with an aqueous mixture containing acetone, water, isopropyl alcohol, DMSO, At plus 411 F crop oil concentrate, and Triton X-155 surfactant in a 48.5:39:10:1.5:1.0:0.02 v/v ratio to obtain spray solutions of known concentration. The solutions containing the highest concentration to be tested were prepared by diluting 2 mL aliquots of the stock solution with 13 mL of the mixture and lower concentrations were prepared by serial dilution of the stock solution. Approximately 1.5 mL aliquots of each solution of known concentration were sprayed evenly onto each of the test plant pots using a DeVilbiss atomizer driven by compressed air pressure of 2 to 4 psi (140 to 280 kiloPascals) to obtain thorough coverage of each plant. Control plants were sprayed in the same manner with the aqueous mixture. […] The treated plants and control plants were placed in a greenhouse as described above and watered by sub-irrigation to prevent wash-off of the test compounds.

The subject of data set [2] is Cocklebur (Xanthium strumarium). The data set is described as above. Type of data set: in vivo. The settings on record: visual score after 2 weeks. As to the method: as §1
In data set [3] the test system is Barnyardgrass (Echinochloa crus-galli). The description is as above. The settings on record: visual score after 2 weeks. Type of data set: in vivo. The method, then: as §1
The subject of data set [4] is Lambsquarter (Chenopodium album). The data set is described as above. The settings on record: visual score after 2 weeks. The class given is in vivo. The method, then: as §1
Where [5] appears, read: Cyperus, post-emergence, 336 h, Table 1, rate 125 ppm, read-out: Post-emergent % control CYPES.
[6] abbreviates: Xanthium strumarium, post-emergence, 336 h, Table 1, rate 125 ppm, read-out: Post-emergent % control XANST.
The mark [7] stands for this setting: Echinochloa crus-galli, post-emergence, 336 h, Table 1, rate 125 ppm, read-out: Post-emergent % control ECHCG.
Setting [8] is: Chenopodium album, post-emergence, 336 h, Table 1, rate 125 ppm, read-out: Post-emergent % control CHEAL.
Where [9] appears, read: Table 1, rate 500 ppm, 0 no injury, 100 complete kill.
[10] abbreviates: Cyperus, post-emergence, 336 h, Table 1, rate 500 ppm, read-out: Post-emergent % control CYPES.
The mark [11] stands for this setting: Xanthium strumarium, post-emergence, 336 h, Table 1, rate 500 ppm, 0 no injury, 100 complete kill, read-out: Post-emergent % control XANST.
[12] abbreviates: Echinochloa crus-galli, post-emergence, 336 h, Table 1, rate 500 ppm, read-out: Post-emergent % control ECHCG.
The mark [13] stands for this setting: Chenopodium album, post-emergence, 336 h, Table 1, rate 500 ppm, read-out: Post-emergent % control CHEAL.

The structures appear in SMILES notation. Read-outs that look alike come from different tables or passages of the source.

Consider `COC(=O)c1nc(-c2ccc3c(c2)OCO3)c(F)c(N)c1F` [Compound 95, Methyl 4-amino-3,5-difluoro-6-(3,4-methylenedioxyphenyl)pyridine-2-carboxylate], for which the melting point (usually the temperature, or range, at which the solid turns liquid) was 189 to 190 °C. Further, the pest or weed control at 125 ppm in data set [1] (setting [5]) came out at 60%. In data set [2] (setting [6]), the pest or weed control at 125 ppm turned out to be 80%. Also, in data set [3] (setting [7]), the pest or weed control at 125 ppm was 70%. In addition, the pest or weed control at 125 ppm in data set [4] (setting [8]) came out at 90%.

Take `Nc1c(F)c(-c2ccc(Cl)cc2)nc(C(=O)O)c1Cl` [Compound 183, 4-Amino-3-chloro-5-fluoro-6-(4-chlorophenyl)pyridine-2-carboxylic acid]: the pest or weed control at 125 ppm in data set [1] (Cyperus, post-emergence, 336 h, Table 2, rate 125 ppm, read-out: Post-emergent % control CYPES) was determined as 100%; in data set [2] (Xanthium strumarium, post-emergence, 336 h, Table 2, rate 125 ppm, read-out: Post-emergent % control XANST) it was 100%; in data set [3] (Echinochloa crus-galli, post-emergence, 336 h, Table 2, rate 125 ppm, read-out: Post-emergent % control ECHCG), 100%; in data set [4] (Chenopodium album, post-emergence, 336 h, Table 2, rate 125 ppm, read-out: Post-emergent % control CHEAL), 100%.

As to `COC(=O)c1nc(-c2ccc(Cl)s2)cc(N)c1Cl` [Compound 98, Methyl 4-amino-3-chloro-6-(5-chloro-2-thienyl)pyridine-2-carboxylate], the pest or weed control at 125 ppm in data set [1] (setting [5]) is 70%; in data set [2] (setting [6]), 90%; in data set [3] (setting [7]), 50%; in data set [4] (setting [8]) it was 90%.

`Nc1cc(-c2ccc(Cl)s2)nc(C(=O)O)c1Cl` [Compound 215, 4-Amino-3-chloro-6-(5-chloro-2-thienyl)pyridine-2-carboxylic acid]: the melting point lay within 178 to 179 °C. In addition, the pest or weed control at 125 ppm in data set [1] (setting [5]) came to 70%. For the same compound, in data set [2] (setting [6]), the pest or weed control at 125 ppm turned out to be 100%. The pest or weed control at 125 ppm in data set [3] (setting [7]) came to 70%. Besides, the pest or weed control at 125 ppm in data set [4] (setting [8]) was 100%.

Turning to `Nc1c(F)c(C(=O)O)nc(-c2ccc(C(F)(F)F)cc2)c1F` [Compound 200, 4-Amino-3,5-fluoro-6-(4-(trifluoromethyl)phenyl)pyridine-2-carboxylic acid], the “Post-emergent % control CYPES” value turned out to be 90% in data set [1] (Table 1, rate 500 ppm) and 90% in data set [1] (Table 2, rate 125 ppm). Also, the “Post-emergent % control XANST” value in data set [2] (setting [9]) is 100%; in data set [2] (Table 2, rate 125 ppm), 90%. Moreover, the “Post-emergent % control ECHCG” value in data set [3] (Table 1, rate 500 ppm) is listed as 95%; in data set [3] (Table 2, rate 125 ppm), 70%. Besides, the “Post-emergent % control CHEAL” value in data set [4] (Table 1, rate 500 ppm) worked out at 95%; in data set [4] (Table 2, rate 125 ppm), 80%.

For the compound `COC(=O)c1nc(-c2ccc(Cl)cc2Cl)c(F)c(NC(C)=O)c1Cl` [Compound 49, Methyl 4-acetamido-3-chloro-5-fluoro-6-(2,4-dichlorophenyl)pyridine-2-carboxylate], the melting point is 178 to 179 °C. Besides, in data set [1] (setting [5]), the pest or weed control at 125 ppm came out at 30%. Further, the pest or weed control at 125 ppm in data set [2] (setting [6]) is 100%. In addition, the pest or weed control at 125 ppm in data set [3] (setting [7]) was found to be 10%. The pest or weed control at 125 ppm in data set [4] (setting [8]) came out at 80%.

Turning to `COC(=O)c1nc(-c2ccccc2F)cc(N)c1Cl` [Compound 33, Methyl 4-amino-3-chloro-6-(2-fluorophenyl)pyridine-2-carboxylate], the pest or weed control at 500 ppm came out at 10% in data set [1] (setting [10]), 100% in data set [2] (setting [11]), 30% in data set [3] (setting [12]) and 100% in data set [4] (setting [13]).

For `Nc1c(Cl)c(C(=O)O)nc(-c2ccc(C(F)(F)F)cc2)c1Cl` [Compound 171, 4-Amino-3′,5-dichloro-6-[4-(trifluoromethyl)phenyl]pyridine-2-carboxylic acid], the “Post-emergent % control CYPES” value in data set [1] (Table 1, rate 500 ppm) turned out to be 60%. Moreover, in data set [2] (setting [9]), the “Post-emergent % control XANST” value was 100%. Also, the “Post-emergent % control ECHCG” value in data set [3] (Table 1, rate 500 ppm) came to 80%. Further, the “Post-emergent % control CHEAL” value in data set [4] (Table 1, rate 500 ppm) came to 95%.

As to `COC(=O)c1nc(-c2ccc(C)nn2)cc(N)c1Cl` [Compound 121, Methyl 4-amino-3-chloro-6-(3-(6-methyl)pyridazinyl)pyridine-2-carboxylate], the “Post-emergent % control CYPES” value in data set [1] (Table 2, rate 125 ppm) was determined as 80%. In data set [2] (Table 2, rate 125 ppm), the “Post-emergent % control XANST” value is listed as 100%. The “Post-emergent % control ECHCG” value in data set [3] (Table 2, rate 125 ppm) stood at 80%. Further, in data set [4] (Table 2, rate 125 ppm), the “Post-emergent % control CHEAL” value worked out at 90%.

Regarding `Nc1c(F)c(C(=O)O)nc(-c2ccc(Cl)cc2F)c1F` [Compound 206, 4-Amino-3,5-difluoro-6-(4-chloro-2-fluorophenyl)pyridine-2-carboxylic acid], the melting point fell in the range of 155 to 156 °C. Also, the pest or weed control at 500 ppm in data set [1] (setting [10]) worked out at 70%. In addition, the pest or weed control at 500 ppm in data set [2] (setting [11]) is 99%. The pest or weed control at 500 ppm in data set [3] (setting [12]) came out at 85%. For the same compound, the pest or weed control at 500 ppm in data set [4] (setting [13]) came out at 95%.

`COC(=O)c1nc(-c2ccc(Cl)cn2)cc(N)c1Cl` [Compound 111, Methyl 4-amino-3-chloro-6-(5-chloro-2-pyridyl)pyridine-2-carboxylate] came in with a melting point of 145 to 150 °C. Moreover, the pest or weed control at 250 ppm in data set [1] (Cyperus, post-emergence, 336 h, Table 1, rate 250 ppm, read-out: Post-emergent % control CYPES) amounted to 80%. In data set [2] (Xanthium strumarium, post-emergence, 336 h, Table 1, rate 250 ppm, read-out: Post-emergent % control XANST), the pest or weed control at 250 ppm stood at 100%. For the same compound, in data set [3] (Echinochloa crus-galli, post-emergence, 336 h, Table 1, rate 250 ppm, read-out: Post-emergent % control ECHCG), the pest or weed control at 250 ppm was found to be 70%. Moreover, the pest or weed control at 250 ppm in data set [4] (Chenopodium album, post-emergence, 336 h, Table 1, rate 250 ppm, read-out: Post-emergent % control CHEAL) was found to be 100%.

On to `Nc1cc(-c2ccc(F)cc2Cl)nc(C(=O)O)c1Cl` [Compound 170, 4-Amino-3-chloro-6-(2-chloro-4-fluorophenyl)pyridine-2-carboxylic acid], for which the melting point was 156 to 157 °C. Further, the pest or weed control at 500 ppm in data set [1] (setting [10]) was found to be 70%. Also, the pest or weed control at 500 ppm in data set [2] (setting [11]) was 100%. For the same compound, the pest or weed control at 500 ppm in data set [3] (setting [12]) is 80%. The pest or weed control at 500 ppm in data set [4] (setting [13]) is 100%.

Compound `COC(=O)c1nc(-c2ccsc2)cc(N)c1Cl` [Compound 122, Methyl 4-amino-3-chloro-6-(3-thienyl)pyridine-2-carboxylate] displayed a melting point of 129 °C.

Turning to `COC(=O)c1nc(-c2ccc(CO)cc2)cc(N)c1Cl` [Compound 242, Methyl 4-amino-3-chloro-6-(4-hydroxymethylphenyl)pyridine-2-carboxylate], the melting point fell in the range of 138 to 139 °C.

In the case of `Nc1c(Cl)c(C(=O)O)nc(-c2cccs2)c1Cl` [Compound 208, 4-Amino-3,5-dichloro-6-(2-thienyl)pyridine-2-carboxylic acid], the melting point is 144 °C.

On to `COC(=O)c1nc(-c2ccc(C(C)=O)cc2)cc(N)c1Cl` [Compound 31, Methyl 4-amino-3-chloro-6-(4-acetylphenyl)pyridine-2-carboxylate], for which the melting point is 146 to 148 °C.

The compound `Nc1cc(-c2cc(Cl)ccc2Cl)nc(C(=O)O)c1Cl` [Compound 177, 4-Amino-3-chloro-6-(2,5-dichlorophenyl)pyridine-2-carboxylic acid] returned a melting point of 213 to 215 °C.

The compound `COC(=O)c1nc(-c2nccs2)cc(N)c1Cl` [Compound 123, Methyl 4-amino-3-chloro-6-(2-thiazolyl)pyridine-2-carboxylate] showed a melting point of 195 to 197 °C.

`COC(=O)c1nc(-c2ccc(O)nc2)cc(N)c1Cl` [Compound 108, Methyl 4-amino-3-chloro-6-(6-hydroxy-3-pyridinyl)pyridine-2-carboxylate] displayed a melting point of 251 to 252 °C.

Turning to `COC(=O)c1nc(-c2ccc(Cl)c(F)c2)cc(NC(C)=O)c1Cl` [Compound 60, Methyl 4-acetamido-3-chloro-6-(4-chloro-3-fluorophenyl)pyridine-2-carboxylate], the melting point fell in the range of 156 to 157 °C.

These data come from patent publication US6784137B2, “6-aryl-4-aminopicolinates and their use as herbicides” (Dow AgroSciences LLC, priority 2001, dated 2004).
